Measured values: US20140154342A1, “SANDALWOOD OIL AND ITS USES RELATED TO SKIN DISORDERS” (SANTALIS PHARMACEUTICALS INC., priority 2011, published 2014)
Values after ≈ are worked out from the molar mass of the structure shown.

How the values were obtained:
MCP-1 = MCP-1 expression in conditioned media of LPS stimulated dermal fibroblasts by ELISA; type: cell-based; conditions: at 40-160 μg/ml
IL-6 = IL-6 expression in conditioned media of LPS stimulated dermal fibroblasts by ELISA; type: cell-based; conditions: Fibroblast, 24 h, read-out: IC50, suppression of IL-6 expression
Method: Dermal fibroblasts were treated with LPS+S1 or S2 at 5-40 μg/ml for 24 h. […] Ibuprofen suppressed IL-6 expression with IC50 of ˜40 μg/ml.

dermal fibroblasts = conditions: 24 h

CC(C)Cc1ccc(C(C)C(=O)O)cc1 (stereo not drawn) [Ibuprofen]
suppression of MCP-1 expression (MCP-1): ~10 fold | IC50 (IL-6): ~40 mg/L (≈ 194 µM) | concentration with cytotoxic effect (no adverse effects / no cytotoxicity up to the value) (dermal fibroblasts): > 160 µg/mL
